Laboratory results taken from PMC8770641, “A transcytotic transport mechanism across the tympanic membrane” (Scientific Reports, 2022).

How the values were obtained:
tympanic membrane (TM) = conditions: purified phage applied to the TM of previously infected rats for one hour; ME contents titered; mean of n = 6; cited from earlier work
Description: Table 1 Sequences and ME recovery of trans-TM 12-mer peptide phage identified by two screening methods (data from Kurabi et al.[19]). Each purified phage was applied to the TM of previously infected rats for one hour (n = 6), and the ME contents then tittered and the number of phage particles recovered were averaged (mean of n = 6). Phage recovery was grouped into transport categories, which were | column: Mean recovery from ME (PFUs)

[1] = test system: trans-TM transport of phage expressing peptide TMT-3; experiment: Inhibitor studies: effect on trans-TM transport of phage expressing peptide TMT-3; assay type: in vivo, Sprague Dawley rats; conditions: 1 h, n = 6 ears; for Effect on trans-TM phage transport: NTHi-infected rats; for Reduction of trans-TM transport: ME contents titered
Protocol: Figure 5 illustrates the results of inhibitor studies.
The MEs of rats were infected with NTHi as above. 48 h later, the external ears of six anesthetized rats were injected with 50 µl of saline containing 10^10 phage expressing TM-3 peptide and up to four inhibitors. Inhibitors were applied at 5–10 times the published IC50 (see Table 1). For any combination of that affected trans-TM transport, Inhibitors were then tested individually to identify the active agent(s). Inhibitors included bafilomycin A (2 µM), brefeldin A (1 uM), carrageenan (200 mg/ml), chlorpromazine (300 µM), Dynasore (500 µM), Endosidin-2 (1 mM), Exo-1 (200 µM), Filipin (50 µg/ml), genistein (100 µM), N-ethylmaleimide (50 µM), nocodazole (300 µM), PitStop-2 (100 µM), Retro-2 (100 µM) and wortmannin (100 µM). […] Six external ears were injected with 10^9 wild-type (WT) phage without a peptide, as negative controls for phage contamination. After one hour, the external ears were extensive rinsed to remove all phage, the MEs were opened and the contents titered to quantify bacteriophage entry. Six replicates were averaged to get the mean and The standard error was calculated by dividing the standard deviation by the sample size's square root (n = 6).

[2] = inhibitor 100 µM with TMT-3 phage
[3] = inhibitor 100 µM with 10^10 TMT-3 phage in 50 µl saline in external ear of NTHi-infected rats (48 h)
[4] = inhibitor 300 µM with TMT-3 phage

**Q.** Which “Mean recovery from ME (PFUs)” value (tympanic membrane (TM)) does the source give for “SPPGKFLESLRS [TMT-1, trans-TM 12-mer peptide expressed on M13 bacteriophage, fused through the C-terminus to the pIII protein]” here?
**A.** 610 PFUs

**Q.** For `O=C1NC(=NS(=O)(=O)c2cccc3ccccc23)S/C1=C\c1ccc(Br)cc1` [Pitstop-2], which “Effect on trans-TM phage transport” value [1, 2] is on record?
**A.** Neither Pitstop-2, as illustrated in Fig. 5, nor chlorpromazine had any effect

**Q.** For “ALWPPNLHAWVP [BPT-2, trans-TM 12-mer peptide expressed on M13 bacteriophage, fused through the C-terminus to the pIII protein]”, which “Mean recovery from ME (PFUs)” value (tympanic membrane (TM)) is on record?
**A.** 210 PFUs

**Q.** Which “Effect on trans-TM phage transport” value ([1]; inhibitor 50 µg/ml with TMT-3 phage) does the source give for `CCCCC[C@@H](O)[C@H]1C(=O)O[C@H](C)[C@@H](O)/C=C/C=C/C=C/C=C/C=C(\C)[C@@H](O)C[C@H](O)C[C@H](O)C[C@H](O)C[C@H](O)C[C@H](O)C[C@@H]1O` [Filipin] here?
**A.** no effect

**Q.** Which “Reduction of trans-TM transport” value [1, 3] does the source give for `COC[C@H]1OC(=O)c2coc3c2[C@@]1(C)C1=C(C3=O)[C@@H]2CCC(=O)[C@@]2(C)C[C@H]1OC(C)=O` [wortmannin] here?
**A.** approximately 90%

**Q.** What about the “Effect on trans-TM phage transport” value [1, 2] of the same compound?
**A.** significantly reduced transport

**Q.** With `COC(=O)Nc1nc2ccc(C(=O)c3cccs3)cc2[nH]1` [nocodazole] as the compound, how does the “Effect on trans-TM phage transport” value [1, 4] read?
**A.** no effect

**Q.** With “DVGAGRWFSDNG [TMT-4, trans-TM 12-mer peptide expressed on M13 bacteriophage, fused through the C-terminus to the pIII protein]” as the compound, how does the “Mean recovery from ME (PFUs)” value (tympanic membrane (TM)) read?
**A.** 5430 PFUs

**Q.** With carrageenan as the compound, how does the “Effect on trans-TM phage transport” value ([1]; inhibitor 200 mg/ml with TMT-3 phage) read?
**A.** no effect

**Q.** Which “Effect on trans-TM phage transport” value [1, 2] does the source give for `O=c1c(-c2ccc(O)cc2)coc2cc(O)cc(O)c12` [genistein] here?
**A.** no effect

**Q.** Which results are given for `Cc1ccc(C=Nc2ccccc2C(=O)Nc2ccccc2)s1` [Retro-2]?
**A.** Reduction of trans-TM transport [1, 3]: approximately 90%; Effect on trans-TM phage transport [1, 2]: significantly reduced transport

**Q.** For `CO/C1=C\C(C)=C\[C@@H](C)[C@@H](O)[C@@H](C)C/C(C)=C/C=C/[C@H](OC)[C@@H]([C@@H](C)[C@@H](O)[C@H](C)[C@@]2(O)C[C@@H](O)[C@H](C)[C@@H](C(C)C)O2)OC1=O` [Bafilomycin], which “Effect on trans-TM phage transport” value ([1]; inhibitor 2 µM with TMT-3 phage) is on record?
**A.** no effect

**Q.** With `CN(C)CCCN1c2ccccc2Sc2ccc(Cl)cc21` [chlorpromazine] as the compound, how does the “Effect on trans-TM phage transport” value [1, 4] read?
**A.** Neither Pitstop-2, as illustrated in Fig. 5, nor chlorpromazine had any effect

**Q.** Which “Mean recovery from ME (PFUs)” value (tympanic membrane (TM)) does the source give for “TFNPPPPQMPST [BPT-4, trans-TM 12-mer peptide expressed on M13 bacteriophage, fused through the C-terminus to the pIII protein]” here?
**A.** 9040 PFUs

**Q.** With “SDDSRPIAQFAI [TMT-5, trans-TM 12-mer peptide expressed on M13 bacteriophage, fused through the C-terminus to the pIII protein]” as the compound, how does the “Mean recovery from ME (PFUs)” value (tympanic membrane (TM)) read?
**A.** 3017 PFUs

**Q.** Which results are given for `COC(=O)c1ccccc1NC(=O)c1ccc(F)cc1` [Exo-1]?
**A.** Reduction of trans-TM transport ([1]; inhibitor 200 µM with 10^10 TMT-3 phage in 50 µl saline in external ear of NTHi-infected rats (48 h)): 40%; Effect on trans-TM phage transport ([1]; inhibitor 200 µM with TMT-3 phage): significantly reduced transport

**Q.** For “TPMVERNYNAAD [BPT-1, trans-TM 12-mer peptide expressed on M13 bacteriophage, fused through the C-terminus to the pIII protein]”, which “Mean recovery from ME (PFUs)” value (tympanic membrane (TM)) is on record?
**A.** 95 PFUs

**Q.** For “THPSTKVPGTPA [BPT-3, trans-TM 12-mer peptide expressed on M13 bacteriophage, fused through the C-terminus to the pIII protein]”, which “Mean recovery from ME (PFUs)” value (tympanic membrane (TM)) is on record?
**A.** 13,050 PFUs

**Q.** Which “Effect on trans-TM phage transport” value ([1]; inhibitor 500 µM with TMT-3 phage) does the source give for `O=C(N/N=C/c1ccc(O)c(O)c1)c1cc2ccccc2cc1O` [Dynasore] here?
**A.** no effect

**Q.** For “SADSTKTTHLTL [TMT-3, trans-TM 12-mer peptide expressed on M13 bacteriophage, fused through the C-terminus to the pIII protein]”, which “Mean recovery from ME (PFUs)” value (tympanic membrane (TM)) is on record?
**A.** 12,030 PFUs

**Q.** Which “Mean recovery from ME (PFUs)” value (tympanic membrane (TM)) does the source give for “TLSPKMPGGGYW [TMT-2, trans-TM 12-mer peptide expressed on M13 bacteriophage, fused through the C-terminus to the pIII protein]” here?
**A.** 3210 PFUs

**Q.** With `COc1cc(/C=N/NC(=O)c2cccc(F)c2)cc(I)c1O` [Endosidin-2] as the compound, how does the “Reduction of trans-TM transport” value ([1]; inhibitor 1 mM with 10^10 TMT-3 phage in 50 µl saline in external ear of NTHi-infected rats (48 h)) read?
**A.** ~ 80%

**Q.** What about the “Effect on trans-TM phage transport” value ([1]; inhibitor 1 mM with TMT-3 phage) of the same compound?
**A.** significantly reduced transport

**Q.** With `CCN1C(=O)C=CC1=O` [N-ethymaleimide] as the compound, how does the “Effect on trans-TM phage transport” value ([1]; inhibitor 50 µM with TMT-3 phage) read?
**A.** no effect
